Several values for one entry are separate records, joined by “and”; a condition that tells them apart may be missing. Identical values can stand only once.
Legend:
[1] = Biodistribution studies of the 18F tracers in rats; type: in vivo, male Wistar rats; details: rat, i.v.
Protocol: Biodistribution studies were carried out in healthy male Wister rats (body weight 200-500 g) at 2 min, 30 min and 60 min post injection (p.i.) (n=3/time point). For |^18F|B-4 only the 2 min and 30 min time points were studied. […] Blood and major organs were collected in tared tubes and weighed. The radioactivity in blood, organs and other body parts was measured using an automated gamma counter. The distribution of radioactivity in different parts of the body at different time points p.i. of the tracer was calculated and expressed as percentage of injected dose (% ID), and as percentage of injected dose per gram tissue (% ID/g) for the selected organs. % ID is calculated as cpm in organ/total cpm recovered. For calculation of total radioactivity in blood, blood mass was assumed to be 7% of the body mass.

[2] = biological target: T1, PDE10A (Rattus norvegicus, UniProt Q9QYJ6); experiment: MicroPET imaging studies; type: in vivo, male Wistar rats
T1 construct: from tissue; host or cells: brain (striatum) of living male Wistar rats, in vivo microPET
T1 sequence (Q9QYJ6 1-794): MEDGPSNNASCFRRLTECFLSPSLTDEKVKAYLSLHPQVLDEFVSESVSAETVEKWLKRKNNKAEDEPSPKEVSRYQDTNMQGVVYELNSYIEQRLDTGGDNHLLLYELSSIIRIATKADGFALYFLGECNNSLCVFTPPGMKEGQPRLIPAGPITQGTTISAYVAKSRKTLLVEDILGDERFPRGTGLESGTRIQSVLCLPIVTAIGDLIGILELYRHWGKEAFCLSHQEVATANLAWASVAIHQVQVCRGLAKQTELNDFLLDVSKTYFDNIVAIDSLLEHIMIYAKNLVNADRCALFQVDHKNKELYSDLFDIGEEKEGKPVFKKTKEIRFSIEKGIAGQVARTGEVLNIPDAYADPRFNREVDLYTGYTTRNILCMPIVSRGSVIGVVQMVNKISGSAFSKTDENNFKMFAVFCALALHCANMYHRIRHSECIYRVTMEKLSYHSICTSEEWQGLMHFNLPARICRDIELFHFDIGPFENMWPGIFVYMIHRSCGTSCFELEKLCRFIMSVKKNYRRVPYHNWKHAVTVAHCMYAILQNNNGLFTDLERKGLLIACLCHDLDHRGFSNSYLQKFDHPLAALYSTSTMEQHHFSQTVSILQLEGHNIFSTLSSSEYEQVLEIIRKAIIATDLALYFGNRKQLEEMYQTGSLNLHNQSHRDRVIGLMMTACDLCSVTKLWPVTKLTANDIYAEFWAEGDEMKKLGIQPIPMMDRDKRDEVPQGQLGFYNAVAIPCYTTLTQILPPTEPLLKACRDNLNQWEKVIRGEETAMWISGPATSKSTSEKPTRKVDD
Protocol: Imaging experiments were performed on a Focus™ 220 microPET scanner (Concorde Microsystems, Knoxville, Tenn., USA) using male Wistar rats with body weight varying between 300 and 600 g. […] Dynamic scans of 120 min were acquired in list mode. After reconstruction of the images, they were semi-automatically co-registered with a [^11C]raclopride template of the rat brain, and volumes of interest (VOIs) were generated for different anatomical brain structures (striatum, cerebral cortex and cerebellum) from which time-activity curves (TAC) were constructed for each individual image, using PMOD software (PMOD Technologies Ltd.). Normalization for body weight of the animal and injected dose was done. The radioactivity concentration in the different brain regions was expressed as SUV (standardized uptake value) as a function of time in seconds post injection of the radiotracer. The parametric binding potential (BP) values were calculated for all acquired images by using a simplified reference tissue model where the TAC of the cerebellum was used as input TAC for non-specific binding, using the same software (PMOD).
The radioactivity concentration in the different brain regions was expressed as SUV value as a function of time p.i. of the radiotracer by normalization for body weight of the animal and injected dose.

total initial brain uptake ([1]; 2 min p.i.): 0.40 % ID
% ID in the urinary system ([1]; 30 min p.i.): ~2.5 % ID
% ID, Blood ([1]; 30 min p.i.): 3.35 ± 0.5 % ID
% ID, Carcass ([1]; 30 min p.i.): 26.15 ± 1.2 % ID
% ID, Cerebellum ([1]; 30 min p.i.): 0.028 ± 0.002 % ID
% ID, Cerebrum total ([1]; 30 min p.i.): 0.208 ± 0.027 % ID
% ID, Cortex ([1]; 30 min p.i.): 0.022 ± 0.002 % ID
% ID, Heart ([1]; 30 min p.i.): 0.28 ± 0.1 % ID
% ID, Hippocampus ([1]; 30 min p.i.): 0.004 ± 0.000 % ID
% ID, Intestines ([1]; 30 min p.i.): 12 % ID and 11.98 ± 1.9 % ID
% ID, Kidneys ([1]; 30 min p.i.): 1.71 ± 0.3 % ID
% ID, Liver ([1]; 30 min p.i.): 47 % ID and 47.40 ± 3.5 % ID
% ID, Lungs ([1]; 30 min p.i.): 0.35 ± 0.1 % ID
% ID, Rest of cerebrum ([1]; 30 min p.i.): 0.162 ± 0.030 % ID
% ID, Spleen + Pancreas ([1]; 30 min p.i.): 0.56 ± 0.1 % ID
% ID, Stomach ([1]; 30 min p.i.): 8 % ID and 8.08 ± 3.7 % ID
% ID, Striatum ([1]; 30 min p.i.): 0.019 % ID and 0.019 ± 0.003 % ID
% ID, Urine ([1]; 30 min p.i.): 0.75 ± 0.1 % ID
% ID/g, Blood ([1]; 30 min p.i.): 0.18 ± 0.03 % ID/g
% ID/g, Cerebellum ([1]; 30 min p.i.): 0.104 ± 0.005 % ID/g
% ID/g, Cerebrum + Cerebellum ([1]; 30 min p.i.): 0.151 ± 0.016 % ID/g
% ID/g, Cerebrum total ([1]; 30 min p.i.): 0.157 ± 0.019 % ID/g
% ID/g, Cortex ([1]; 30 min p.i.): 0.145 ± 0.026 % ID/g
% ID/g, Heart ([1]; 30 min p.i.): 0.24 ± 0.04 % ID/g
% ID/g, Hippocampus ([1]; 30 min p.i.): 0.108 ± 0.013 % ID/g
% ID/g, Kidneys ([1]; 30 min p.i.): 0.68 ± 0.12 % ID/g
% ID/g, Liver ([1]; 30 min p.i.): 3.85 ± 0.04 % ID/g
% ID/g, Lungs ([1]; 30 min p.i.): 0.24 ± 0.02 % ID/g
% ID/g, Rest of cerebrum ([1]; 30 min p.i.): 0.149 ± 0.019 % ID/g
% ID/g, Spleen + Pancreas ([1]; 30 min p.i.): 0.40 ± 0.02 % ID/g
% ID/g, Striatum ([1]; 30 min p.i.): 0.458 ± 0.041 % ID/g
peak (maximum) striatum-to-cerebellum ratio ([2]; baseline microPET): 4.4
time of peak striatum-to-cerebellum ratio ([2]; baseline microPET): about 6 min p.i.
time until which peak striatum-to-cerebellum ratio remained ([2]; baseline microPET): about 13 min p.i.
BP (binding potential) at baseline ([2]; simplified reference tissue model, cerebellum as reference): 2.5
SMILES: COc1ccc(COc2ccc(-c3nn(CC[18F])cc3-c3ccncc3)cc2)nc1 [[^18F]B-4]
% ID/g normalized for body weight, Blood ([1]; 30 min p.i.): 0.05 ± 0.01 % ID/g × body wt. in kg
% ID/g normalized for body weight, Cerebellum ([1]; 30 min p.i.): 0.029 ± 0.00 % ID/g × body wt. in kg
% ID/g normalized for body weight, Cerebrum + Cerebellum ([1]; 30 min p.i.): 0.04 ± 0.00 % ID/g × body wt. in kg
% ID/g normalized for body weight, Cerebrum total ([1]; 30 min p.i.): 0.043 ± 0.00 % ID/g × body wt. in kg
% ID/g normalized for body weight, Cortex ([1]; 30 min p.i.): 0.040 ± 0.01 % ID/g × body wt. in kg
% ID/g normalized for body weight, Heart ([1]; 30 min p.i.): 0.07 ± 0.01 % ID/g × body wt. in kg
% ID/g normalized for body weight, Hippocampus ([1]; 30 min p.i.): 0.029 ± 0.00 % ID/g × body wt. in kg
% ID/g normalized for body weight, Kidneys ([1]; 30 min p.i.): 0.19 ± 0.03 % ID/g × body wt. in kg
% ID/g normalized for body weight, Liver ([1]; 30 min p.i.): 1.05 ± 0.03 % ID/g × body wt. in kg
% ID/g normalized for body weight, Lungs ([1]; 30 min p.i.): 0.07 ± 0.00 % ID/g × body wt. in kg
% ID/g normalized for body weight, Rest of cerebrum ([1]; 30 min p.i.): 0.041 ± 0.00 % ID/g × body wt. in kg
% ID/g normalized for body weight, Spleen + Pancreas ([1]; 30 min p.i.): 0.11 ± 0.01 % ID/g × body wt. in kg
% ID/g normalized for body weight, Striatum ([1]; 30 min p.i.): 0.125 % ID/g × body wt. in kg and 0.125 ± 0.01 % ID/g × body wt. in kg
radioactivity concentration, the other brain regions (than striatum) ([1]; 30 min p.i.): ≤ 0.040 % ID/g corrected for body weight
striatum/blood ratio (from % ID/g normalized for body weight) ([1]; 30 min p.i.): 2.61
striatum/cerebellum ratio (from % ID/g normalized for body weight) ([1]; 30 min p.i.): 4.38
striatum/hippocampus ratio (from % ID/g normalized for body weight) ([1]; 30 min p.i.): 4.25

Reference: patent US8852554B2, “Radiolabelled PDE10 ligands” (Janssen Pharmaceutica NV, priority 2009, dated 2014)
